PubChem BioAssay AID1918940 (Molecular Pharmacology Branch, DTP, NCI, 2023)

System: NCI-H211 complex spheroid viability
Experiment: Anticancer human tumor NCI-H211 cell line growth inhibition [LSD1];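 note: luminescent viability read after seven days of drug exposure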;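 for viability, T/C: 100% = DMSO vehicle control viability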
Details: for IC50: curve of first compound; for viability, T/C: stronger effect = lower value
Source text: Multicellular complex tumor spheroid response to LSD1 Inhibitor Iadademstat in combination with a variety of drugs and investigational agents in selected tumor cell lines
The current study was undertaken to assess response to LSD1 inhibitors in combination with standard-of-care drugs and investigational agents in solid tumor complex spheroid models as well as in the K-562 leukemia. Complex spheroids include a stromal component modeled by human endothelial cells (HUVEC) and fibroblasts modeled by human mesenchymal stem cells (MSCs). The concentration ranges selected for each drug and investigational agent were based upon clinically achievable concentrations if the clinical Cmax of the agent was known.
Compounds. The drugs and investigational agents used in this study are listed on Table 1. All of the agents used, including staurosporine (NSC755774) and gemcitabine (NSC613327), were obtained from the Developmental Therapeutics Program, NCI. FDA-approved anticancer drugs are available from the NCI at http://dtp.nci.nih.gov/branches/dscb/oncology_drugset_explanation.html. Drugs and investigational agents were >95% pure by proton nuclear magnetic resonance (NMR) and liquid chromatography/mass spectrometry (LC/MS). Stock solutions were prepared at 400x in DMSO, stored at -70 degrees C, and diluted in fresh medium prior to their use. The final concentration of DMSO in cell culture wells never exceeded 0.25% (v/v). The FDA-approved anticancer drug set is available from the Developmental Therapeutics Program at https://dtp.cancer.gov/organization/dscb/obtaining/available_plates.htm. All drugs and investigational agents were tested over a range starting from a high concentration at or near the clinical Cmax and decreasing in half-log increments. If the clinical Cmax for an agent had not been determined, the highest concentration tested was 10 microM.
Cell Lines. The patient-derived cancer cell (PDC) lines: 292921-168-R-J2-PDC, K24384-001-R-PDC, and 521955-158-R2-J5-PDC pancreatic carcinomas, 556581-035-R-J1 ovarian carcinoma, 324938-238-R-J1-PDC, 855422-203-R-J1-PDC and 883617-216-R-J1-PDC urothelial bladder carcinomas, 743489-274-T-PDC renal cell carcinoma, 138582-R-J1 Merkel cell tumor, K60290-347-R-J1 and K57222-313-R-J1-PDC glioblastomas, 653999-131-R-J2-PDC, LG0703-F948-PDC, and 349418-098-R-PDC non-small cell lung carcinomas, 885512-296-R-J2-PDC, 171881-019-R-J1-PDC breast carcinomas and 186277-243-T-J2-PDC and 233499-124-R-J2-PDC colon carcinomas were obtained from the NCI Patient-Derived Models Repository (PDMR, https://pdmr.cancer.gov). The established cell lines NCI/ADR-RES (RRID:CVCL_14520 and OVCAR-5 (RRID:CVCL_1628) ovarian carcinomas, 786-O (RRID:CVCL_1051) and A498 (RRID:CVCL_A498) renal cell carcinoma, NCI-H211 (ATCC, cat. CRL-5824; RRID:CVCL_1529), NCI-H196 (ATCC, cat. CRL-5823, RRID:CVCL_1509), SW 1271 (ATCC, cat. CRL-2177, RRID:CVCL_1716) and NCI-H1876 (ATCC, cat. CRL-5902, RRID:CVCL_1503) small cell lung carcinomas, MDA-MB-231 (RRID:CVCL_0062) and MDA-MB-468 (RRID:CVCL_0419)breast carcinomas (10-12). Pooled donor human umbilical vein endothelial cells (HUVEC, Lonza, cat. CC-2519) and human mesenchymal stem cells (hMSC, Lonza, cat. PT-2501) were purchased from Lonza (Walkersville, MD).
Cell Culture. All cells were maintained in an incubator at 37 degrees C and 5% CO2 with 95% humidity. The PDC lines were cultured according to standard operating procedures established by the NCI PDMR (https://pdmr.cancer.gov). Briefly all PDCs were thawed and cultured in Matrigel-coated flasks prepared with a working solution of 1X Ham's F-12 nutrient mix, without supplementation (Invitrogen, Waltham, MA, cat. 11765054), 100 U/mL penicillin-streptomycin (Invitrogen, cat. 15140122), and 2.5% Matrigel (Corning Inc., Corning, NY, cat. 354248) for the first three passages. […]

CCc1c2c(nc3ccc(O)cc13)-c1cc3c(c(=O)n1C2)COC(=O)[C@]3(O)CC + NC1CC1c1ccc(-c2cccc(O)c2)cc1
IC50 (second compound 0.1 µM): < 949 pM
IC50 (second compound 0.316 µM): < 949 pM
IC50 (second compound 1 µM): < 949 pM
IC50 (second compound 3.16 µM): < 949 pM
IC50 (second compound 10 µM): < 949 pM
viability, T/C (second compound 0.1 µM, first compound 0.000949 µM): 3.24%
viability, T/C (second compound 0.1 µM, first compound 0.003 µM): 1.7%
viability, T/C (second compound 0.1 µM, first compound 0.00949 µM): 2.13%
viability, T/C (second compound 0.1 µM, first compound 0.03 µM): 0.66%
viability, T/C (second compound 0.1 µM, first compound 0.0949 µM): 0.05%
viability, T/C (second compound 0.1 µM, first compound 0.3 µM): 0.14%
viability, T/C (second compound 0.316 µM, first compound 0.000949 µM): 3.2%
viability, T/C (second compound 0.316 µM, first compound 0.003 µM): 1.12%
viability, T/C (second compound 0.316 µM, first compound 0.00949 µM): 1.18%
viability, T/C (second compound 0.316 µM, first compound 0.03 µM): 1.44%
viability, T/C (second compound 0.316 µM, first compound 0.0949 µM): 0.05%
viability, T/C (second compound 0.316 µM, first compound 0.3 µM): 0.15%
viability, T/C (second compound 1 µM, first compound 0.000949 µM): 3.18%
viability, T/C (second compound 1 µM, first compound 0.003 µM): 1.68%
viability, T/C (second compound 1 µM, first compound 0.00949 µM): 1.11%
viability, T/C (second compound 1 µM, first compound 0.03 µM): 0.97%
viability, T/C (second compound 1 µM, first compound 0.0949 µM): 0.04%
viability, T/C (second compound 1 µM, first compound 0.3 µM): 0.16%
viability, T/C (second compound 3.16 µM, first compound 0.000949 µM): 2.71%
viability, T/C (second compound 3.16 µM, first compound 0.003 µM): 1.57%
viability, T/C (second compound 3.16 µM, first compound 0.00949 µM): 1.28%
viability, T/C (second compound 3.16 µM, first compound 0.03 µM): 0.83%
viability, T/C (second compound 3.16 µM, first compound 0.0949 µM): 0.05%
viability, T/C (second compound 3.16 µM, first compound 0.3 µM): 0.2%
viability, T/C (second compound 10 µM, first compound 0.000949 µM): 2.86%
viability, T/C (second compound 10 µM, first compound 0.003 µM): 1.99%
viability, T/C (second compound 10 µM, first compound 0.00949 µM): 1.75%
viability, T/C (second compound 10 µM, first compound 0.03 µM): 1.25%
viability, T/C (second compound 10 µM, first compound 0.0949 µM): 0.17%
viability, T/C (second compound 10 µM, first compound 0.3 µM): 0.2%
